Data set [1] concerns HEK293Tmtkeima cells. Briefly: Functional test of mitophagy inducer (mtKeima imaging, with or without CCCP-induced mitochondrial damage). In kind it is cell-based, Human. The conditions noted are these: for Ability to selectively induce autophagy in damaged mitochondria (FIG. 2): 5 uM or 10 uM CCCP versus no CCCP treatment; for The ability of selection to induce autophagy in damaged mitochondria: HEK293Tmtkeima cells, 5 uM or 10 uM CCCP to induce mitochondrial damage, number of cells in which damaged mitophagy occurs/number of all cells. On the procedure:
Group 1: Human embryonic kidney transformed cells HEK293Tmtkeima cells were treated with 0 μM, 1.25 μM, 2.5 μM, 5 μM and 10 μM CCCP respectively, and seeded in a 96-well black ELISA PLATE at 1.5*10^5 cells/ml, 100 μL per well. Compound I-2 was added after 25 hours, and 3 replicates were set. At 37° C., under 5% CO2 incubation conditions, photographs were taken every few hours with biotek cytation 5 for a total of 20 hours, with the bright field as the focusing channel, and 9 images were taken per hole, and the images were processed using the instrument software.
Group 2: Human embryonic kidney transformed cells HEK293Tmtkeima cells were seeded in a 96-well black ELISA PLATE at […], 100 μL per well; compounds I-1˜I-44 and UMI-77 were added after 25 hours, set up 3 replicates; under 37° C., 5% CO2 culture conditions, use biotek every few hours Cytation 5 was used to take photos, a total of 20 hours of shooting. In another group of cells under the same conditions, human embryonic kidney-transformed cells HEK293Tmtkeima cells were seeded in a 96-well black enzyme plate at 1.5*10^5 cells/ml, 100 μl per well; after 24 hours, 5 uM or 10 uM CCCP (Carbonyl cyanide) was first added 3-chlorophenylhydrazone) to induce mitochondrial damage, then add I-1˜I-44, UMI-77 1 hour later, set up 3 repetitions; under 37° C., 5% CO2 culture conditions, pictures were taken every few hours with biotek cytation 5, photographs were taken for 20 hours. Another group of human embryonic kidney transformed cells HEK293Tmtkeima cells was seeded at 1.5*10^5 cells/ml in 96-well black ELISA PLATE at 100 μl per well under the same conditions, 24 hours later 5 uM or 10 uM CCCP (Carbonyl cyanide 3-chlorophenylhydrazone) was first added to induce mitochondrial damage, after 1 hour then add I-1 to I-44, UMI-77 and set up 3 replicates. At 37° C., under 5% CO2 incubation conditions, pictures were taken every few hours with biotek cytation 5, photographs were taken for 20 hours, with the bright field as the focusing channel for both groups, and 9 images were taken per hole, and the images were processed using the instrument software.

Data set [2] is described as follows: In vitro liver microsome stability test. In kind it is in vitro ADME. To be noted: in vitro mouse or human liver microsomes. The procedure: Ketanserin was selected as the reference compound. The specific method is as follows:
Prepare 0.1MK3PO4 (pH 7.4) buffer and 3×NADPH stock solution (6 mM, 5 mg/mL), and preheat in a 37° C. water bath; configure the test compound and control compound spiking solution: 5 μL compound stock solution ([…]) was added to 95 μL acetonitrile; Configuration of 1.5 μM spiking solution in microsomes (0.75 mg/mL): 1.5 μL of spiking solution and 18.75 μL of liver microparticles solution (20 mg/mL) were added to 479.75 μL of K3PO4 buffer; add 30 μL spiking solution in microsomes to the multi-well plate, and incubated at 37° C. for 5 minutes; add 15 μL NADPH stock solution to each well to start the reaction, and timing; the reaction was terminated by adding 150 μL of acetonitrile solution containing IS at 0 min, 5 min, 15 min, 30 min and 45 min, respectively; shake for 10 min and then centrifuge at 6000 rpm for 15 min; take 80 μL of the supernatant from each well for LC/MS detection and calculate T1/2.
Note: The mouse and human liver microsomes used in the experiments were purchased from Xenotech.

A short description of data set [3]: In vitro plasma stability test. In kind it is in vitro ADME. To be noted: 37° C. On the procedure: Procaine was selected as the reference compound. The specific method is as follows:
Incubated in a water bath at 37° C. for 0, 5, 15 and 30 minutes and 1, 2, 4, 6, 10, 24 and 48 hours. Take 200 μL and add 3 times the volume of chromatography grade acetonitrile to precipitate the protein. Vortex shaking for 5 minutes, centrifuge, take 200 μL of the supernatant, HPLC injection and analysis. The liquid phase conditions are the same as before.

Data set [4] can be described thus: Mouse pharmacokinetics (PK) test. It counts as in vivo, ICR mice. To be noted: for AUC(0-inf) / bioavailability / half-life / Cmax / clearance / Vd: ICR, plasma; for bioavailability: read-out: Bioavailability F; for half-life: read-out: Half-life t 1/2 (converted); for Cmax: read-out: Peak blood concentration C max; for clearance: read-out: Eliminate Cl; for Vd: read-out: Steady state apparent volume of distribution Vss. On the procedure: (§1) Take experimental mice and apply an appropriate amount of the test compound to them according to the dosage and administration route shown in the figure. Three experimental mice were selected for three parallel experiments for each compound and each administration method. Numbers 101, 102 and 103 were in the same group, 201, 202 and 203 were in one group, and 301, 302 and 303 were in one group.
(§2) At the corresponding time point, take 10 μL of rat plasma sample into a centrifuge tube, add 100 μL of methanol:acetonitrile (1:1, v/v), perform […] for 1 min, centrifuged (14000 rpm) for 5 min, and take 50 μL of the supernatant, mixed with water in equal volumes, mixed uniformly by […] and then analyzed.
(§3) Note: The mice used in the PK experiment are ICR mice of SPF, purchased from Sino-British SIPPR Lab Animal Ltd, Shanghai, China. The rats used in the PK experiments were SD rats of SPF, purchased from Sino-British SIPPR Lab Animal Ltd, Shanghai, China.

A short description of data set [5]: Rat pharmacokinetics (PK) test. The conditions noted are these: for bioavailability: read-out: Bioavailability F; for half-life: read-out: Half-life t 1/2 (converted); for Cmax: read-out: Peak blood concentration C max. It counts as in vivo, SD rats. The procedure:
as §1, §2, §3

Setting [6] is: IP intraperitoneal injection, 3 mg/kg.
Setting [7] is: IV intravenous injection, 1 mg/kg.
The mark [8] stands for this setting: SD, plasma, IP intraperitoneal injection (3 mg/kg).
The mark [9] stands for this setting: SD, plasma, IV intravenous injection (1 mg/kg).
[10] abbreviates: SD, plasma, PO oral gavage (10 mg/kg).

Each structure is given as a SMILES string.

For the compound `O=C(O)C[S+]([O-])c1cc(NS(=O)(=O)c2ccc(Br)cc2)c2ccccc2c1O` (stereo not drawn) [Compound I-1], the “Ability to selectively induce autophagy in damaged mitochondria (FIG. 2)” value (“Ability to selectively induce autophagy” below) in data set [1] is “more likely to induce autophagy in damaged mitochondria”. Further, the “The ability of selection to induce autophagy in damaged mitochondria” value (“The ability of selection” for short) in data set [1] is recorded as “+++ (strong ability to selectively induce autophagy in damaged mitochondria (number of cells in which damaged mitophagy occurs/number of all cells >0.30))”. The “Liver microsomal stability (elimination half-life T 1/2, FIG. 3)” value (shortened to “Liver microsomal stability”) in data set [2] is reported as “superior liver microsomal stability”. The “Plasma stability (half-life, FIG. 4)” value in data set [3] is “superior plasma stability”. Further, the “PK properties in the mouse PK experiment (in words)” value in data set [4] is given as “good PK properties”. The AUC(0-inf) in data set [4] (setting [6]) is 4420 ng·h/mL; in data set [4] (setting [7]), 714 ng·h/mL; in data set [4] (PO oral gavage, 10 mg/kg) it was 3800 ng·h/mL; in data set [5] (setting [8]), 18300 ng·h/mL; in data set [5] (setting [9]), 3720 ng·h/mL; in data set [5] (setting [10]), 6070 ng·h/mL. Besides, the bioavailability in data set [4] (setting [6]) was 247%; in data set [4] (PO oral gavage, 10 mg/kg) it was 60.4%; in data set [5] (setting [8]) it was 165%; in data set [5] (setting [10]) it was 16.3%. For the same compound, the half-life in data set [4] (setting [6]) is 47.4 min; in data set [4] (setting [7]), 75 min; in data set [4] (PO oral gavage, 10 mg/kg), 118 min; in data set [5] (setting [8]), 200 min; in data set [5] (setting [9]), 116 min; in data set [5] (setting [10]) it was 57.6 min. The Cmax was 3740 ng/mL in data set [4] (setting [6]); 832 ng/mL in data set [4] (setting [7]); 1350 ng/mL in data set [4] (PO oral gavage, 10 mg/kg); 5440 ng/mL in data set [5] (setting [8]); 1900 ng/mL in data set [5] (setting [9]); 1550 ng/mL in data set [5] (setting [10]). Besides, the clearance in data set [4] (setting [7]) is 24.9 mL/min/kg; in data set [5] (SD, plasma, IV intravenous injection (1 mg/kg), read-out: Eliminate Cl) it was 4.91 mL/min/kg. Further, the Vd in data set [4] (setting [7]) worked out at 2.3 L/kg; in data set [5] (SD, plasma, IV intravenous injection (1 mg/kg), read-out: Steady state apparent volume of distribution V ss) it was 0.63 L/kg. The “PK properties in the rat PK experiment (in words)” value in data set [5] is “good PK properties”.
In the case of `O=C(O)CSc1cc(NS(=O)(=O)c2ccc(Br)cc2)c2ccccc2c1O` [UMI-77, reference compound], the “Ability to selectively induce autophagy” value in data set [1] is on record as “unable to selectively induce autophagy in damaged mitochondria”. Moreover, in data set [2], the “Liver microsomal stability” value is “unstable in the liver microsomal environment and will be rapidly eliminated”. In addition, the “Plasma stability (half-life, FIG. 4)” value in data set [3] was “unstable in the plasma environment and will be rapidly eliminated”. In data set [4], the “PK properties in the mouse PK experiment (in words)” value is recorded as “rapidly cleared”. Further, in data set [4] (setting [7]), the AUC(0-inf) was determined as 140 ng·h/mL, the clearance came out at 131 mL/min/kg, the Cmax worked out at 314 ng/mL and the Vd came out at 18.4 L/kg. In data set [4] (PO oral gavage, 10 mg/kg), the AUC(0-inf) amounted to 162 ng·h/mL, the bioavailability was 8.64% and the Cmax came to 102 ng/mL.
On to `CN(c1cc([S+]([O-])CC(=O)O)c(O)c2ccccc12)S(=O)(=O)c1ccc(Br)cc1` (stereo not drawn) [Compound I-2], for which, in data set [1], the “Ability to selectively induce autophagy” value is on record as “more likely to induce autophagy in damaged mitochondria” and the “The ability of selection” value was “++ (moderate ability to selectively induce autophagy in damaged mitochondria (number of cells in which damaged mitophagy occurs/number of all cells in the range of 0.2 to 0.3))”. Also, the “Induction of mitophagy in cells with undamaged mitochondria (FIG. 1)” value in data set [1] (cells treated with 0 μM CCCP) is “unable to induce autophagy in non-damaged mitochondria”. Also, the “Induction of mitophagy in cells with mitochondrial damage (FIG. 1)” value in data set [1] (cells with CCCP (10 μM) versus without CCCP) is “selectively induces autophagy in damaged mitochondria”. The “Liver microsomal stability” value in data set [2] is “superior liver microsomal stability”. Moreover, in data set [3], the “Plasma stability (half-life, FIG. 4)” value is on record as “superior plasma stability”. Besides, the “PK properties in the mouse PK experiment (in words)” value in data set [4] is on record as “good PK properties”. For the same compound, in data set [4] (setting [7]), the AUC(0-inf) was 429 ng·h/mL, the clearance came out at 39.3 mL/min/kg, the half-life is 58.8 min and the Cmax came out at 947 ng/mL. The Vd in data set [4] (setting [7]) turned out to be 1.39 L/kg. In data set [4] (PO oral gavage, 10 mg/kg), the AUC(0-inf) turned out to be 1050 ng·h/mL, the bioavailability is 24.1%, the half-life was 82.2 min and the Cmax came out at 495 ng/mL.
In the case of `CN=S(=O)(c1ccc(Br)cc1)N(C)c1cc([S+]([O-])CC(=O)O)c(O)c2ccccc12` (stereo not drawn) [Compound I-26], the “The ability of selection” value in data set [1] is given as “++ (moderate ability to selectively induce autophagy in damaged mitochondria (number of cells in which damaged mitophagy occurs/number of all cells in the range of 0.2 to 0.3))”.
Same read-out and setting: for `O=S(=O)(Cc1nn[nH]n1)c1cc(NS(=O)(=O)c2ccc(Br)cc2)c2ccccc2c1O` [Compound I-7-2] the value was “+ (weak ability to selectively induce autophagy in damaged mitochondria (number of cells in which damaged mitophagy occurs/number of all cells in the range of 0.1 to 0.2))”.
On to `N#Cc1ccc2c(O)c([S+]([O-])CC(=O)O)cc(NS(=O)(=O)c3ccc(Br)cc3)c2c1` (stereo not drawn) [Compound I-31], for which the “The ability of selection” value in data set [1] is recorded as “+ (weak ability to selectively induce autophagy in damaged mitochondria (number of cells in which damaged mitophagy occurs/number of all cells in the range of 0.1 to 0.2))”.
Turning to `O=C(O)C[S+]([O-])c1cc(NS(=O)(=O)c2cc3ccccc3s2)c2ccccc2c1O` (stereo not drawn) [Compound I-19-1], the “The ability of selection” value in data set [1] is “++ (moderate ability to selectively induce autophagy in damaged mitochondria (number of cells in which damaged mitophagy occurs/number of all cells in the range of 0.2 to 0.3))”.

(Values after patent US12151999B2, “Small molecule compounds having naphthylamine structure and application thereof” (Hangzhou PhecdaMed Co., Ltd., priority 2021, dated 2024).)
